This is an account of results in US10023836B2, “Medium for yeasts” (YAMAGUCHI UNIVERSITY, priority 2012, dated 2018).

Where two headings read alike, the source gives them in different places.

Experiment [1] deals with RAK2683 yeast strain. Put plainly: Investigation of nitrogen source used singly in MM culture medium instead of ammonium sulfate (Table 4). It is filed as cell-based, Saccharomyces cerevisiae. The settings on record: Table 4 conditions.
For experiment [2], the system named is Saccharomyces cerevisiae RAK3599 strain. As to the kind of experiment: SynAA culture medium: elimination of single components and inorganic ion concentration. The class given is cell-based. The settings on record: for OD600 for 1/100 solutions after 42 hours: SynAA culture medium; for essentiality for increasing proliferation: one component of the vitamin mix eliminated from SynAA culture medium. How it is done:
(§1) In a case where no special provisions are made, a procedure for a cultivation experiment using the culture medium to be investigated for proliferation was such that a yeast undergoing investigation was pre-cultured in a YPD liquid culture medium at 28° C. for 24 hours, after which the yeast was adjusted such that OD600=20. […] In addition, OD600 was measured every 15 minutes by a spectrophotometer (Cell density meter co8000, WPA). Hereafter, data is represented by graphs for a case using the automatic spectrophotometer; however, these graphs are primarily used to compare the slope of logarithmic growth phase proliferation curves for each culture medium, and because OD600 is measured without dilution, values where OD600=3 to 3.5 or more may be incorrect.
Culture mediums were prepared in which one component each of the components configuring the inorganic ion mix was eliminated from the SynAA culture medium, and OD600 was measured. […] Thereafter, an investigation specifically of inorganic ion concentration was conducted. […] An investigation was conducted using RAK3599 strain (hereafter, simply referred to as “RAK3599 strain”), which is a strain of Saccharomyces cerevisiae not having a particular nutritional requirement. Where no subsequent special provisions were made, proliferation was investigated by performing roller tube culture for an appropriate amount of time at 28° C. and measuring OD600.
MgSO4 concentration in the SynAA culture mediums was adjusted to 0%, 0.0001%, 0.001%, 0.01%, 0.1%, and 1%, respectively, and proliferation of the RAK3599 strain was investigated. […] Next, MgCl2 concentration in the SynAA culture mediums was adjusted to 0.001%, 0.01%, 0.1%, and 1%, respectively, and proliferation of the RAK3599 strain was investigated.
A culture medium was prepared in which one component each of the components configuring the vitamin mix was eliminated from the SynAA culture medium, with the SynAA culture medium as the control, and proliferation of the RAK3599 strain was investigated.

The subject of experiment [3] is RAK3599 strain. As to the kind of experiment: Vitamin and FeCl3 concentration in AKD′ culture medium (FIGS. 22 to 28). The class given is cell-based, Saccharomyces cerevisiae. How it is done: as §1
Pyridoxine concentration in the AKD′ culture medium was adjusted to 0, 0.004, 0.04, 0.4, 4, and 40 μg/mL, respectively, and proliferation of the RAK3599 strain was investigated.
Pantothenic acid concentration in the AKD′ culture medium was adjusted to 0, 0.004, 0.04, 0.4, 4, and 40 μg/mL, respectively, and proliferation of the RAK3599 strain was investigated.
Thiamine concentration in the AKD′ culture medium was adjusted to 0, 0.004, 0.04, 0.4, 4, and 40 μg/mL, respectively, and proliferation of the RAK3599 strain was investigated.
Nicotinic acid concentration in the AKD′ culture medium was adjusted to 0, 0.004, 0.04, 0.4, 4, and 40 μg/mL, respectively, and proliferation of the RAK3599 strain was investigated.
Myo-inositol concentration in the AKD′ culture medium was adjusted to 0, 0.02 μg/mL, 0.2 μg/mL, 2 μg/mL, 20 μg/mL, and 200 μg/mL, respectively, and proliferation of the RAK 3599 strain was investigated.
FeCl3 concentration in the AKD′ culture medium was adjusted to 0, 0.002, 0.02, 0.2, 2, and 20 μg/mL, respectively, and proliferation of the RAK3599 strain was investigated.

The test system of experiment [4] is RAK3599 strain. As to the kind of experiment: Investigation with AID and aY-AID culture medium (FIGS. 29 to 39). It is filed as cell-based, Saccharomyces cerevisiae. The conditions noted are these: for effect on proliferation when added at high concentrations: up to 1% or up to 0.2500%. Here is the method:
As shown in the following, an investigation was conducted into concentrations of each amino acid and a substitution potential of pantothenic acid for the amino acid in the AID culture medium. A suitable YPD culture medium was used as a control.
Next, the amino acids asparagine, isoleucine, phenylalanine, and valine were each adjusted to a culture medium additive concentration of […], 0.0312%, 0.0625%, 0.1250%, and 0.2500%, and OD600 was measured after 24 hours.
Isoleucine concentration in the aY-AID culture medium was adjusted to 0, 0.01 mg/mL, 0.1 mg/mL, 0.5 mg/mL, and 1 mg/mL, respectively, and proliferation of the RAK3599 strain was investigated.
Phenylalanine concentration in the aY-AID culture medium was adjusted to 0, 0.01, 0.1, 0.5, and 1 mg/mL, respectively, and proliferation of the RAK3599 strain was investigated.
Valine concentration in the aY-AID culture medium was adjusted to 0, 0.01, 0.1, 0.5, and 1 mg/mL, respectively, and proliferation of the RAK3599 strain was investigated.
Serine concentration in the AID culture medium was adjusted to 0, 0.01 mg/mL, 0.1 mg/mL, 0.5 mg/mL, and 1 mg/mL, respectively, and proliferation of the RAK3599 strain was investigated.
Threonine concentration in the AID culture medium was adjusted to 0, 0.01, 0.1, 0.5, and 1 mg/mL, respectively, and proliferation of the RAK3599 strain was investigated.
Asparagine concentration in the AID culture medium was adjusted to 0, 0.01, 0.1, 0.5, and 1 mg/mL, respectively, and proliferation of the RAK3599 strain was investigated.
An investigation was conducted into vitamins contained in the AID culture medium. […]

The test system of experiment [5] is Saccharomyces cerevisiae adenine-requiring BY4725 (ade2Δ) strain. Put plainly: Adenine concentration in AKD culture medium (FIG. 20). It is filed as cell-based. How it is done:
A concentration of adenine contained in the amino acid mix of the AKD culture mediums for convenience was adjusted to 0%, 0.005%, 0.01%, 0.05%, 0.1%, and 0.5%, respectively, and proliferation of a Saccharomyces cerevisiae adenine-requiring BY4725 (ade2Δ) strain was investigated. OD600 for 1/20 solutions after 42 hours was 4, 15, 18, 18, 13 and 16, respectively. […] Given the above-noted results, a preferred adenine concentration was understood to be around 0.01%.

Setting [6] is: one component of the inorganic ion mix eliminated from SynAA culture medium.

Regarding `CC(=O)O.N` [Ammonium acetate], the “proliferation when added singly as nitrogen source” value (from here on “proliferation when added singly”) in experiment [1] is listed as “did not, as a whole, exhibit favorable proliferation”.
The same measure, in the same setting: with `Cl.N` [Ammonium chloride] the entry was “did not, as a whole, exhibit favorable proliferation”.
Regarding `N.N.O=S(=O)(O)O` [Ammonium sulfate], the “proliferation when added singly” value in experiment [1] was “proliferation was confirmed to be extremely poor”. In addition, in experiment [2] (setting [6]), the “proliferation when the component is not added” value is given as “higher proliferation”.
With `[Cl][Fe]([Cl])[Cl]` [FeCl3, Anhydrous ferric (III) chloride], in experiment [3] (AKD′ culture medium), the preferred concentration result was “around 4000 μg/L”. The “OD600 after 24 hours” value in experiment [3] (AKD′ culture medium, FeCl3 0 μg/mL) is recorded as 10; in experiment [3] (AKD′ culture medium, FeCl3 0.002 μg/mL) it was 9; in experiment [3] (AKD′ culture medium, FeCl3 0.02 μg/mL) it was 11; in experiment [3] (AKD′ culture medium, FeCl3 0.2 μg/mL), 10; in experiment [3] (AKD′ culture medium, FeCl3 2 μg/mL), 13; in experiment [3] (AKD′ culture medium, FeCl3 20 μg/mL), 14.
In the case of `N[C@@H](CCC(=O)[O-])C(=O)[O-].O.[Na+].[Na+]` [Glutamic acid, L-Glutamic acid sodium salt hydrate], in experiment [1], the “proliferation when added singly” value was “favorable proliferation”.
On to `NCC(=O)O` [Glycine], for which the “proliferation when added singly” value in experiment [1] is recorded as “almost no proliferation”. In addition, in experiment [4] (AID culture medium), the “effect on proliferation when added at high concentrations” value was “proliferation was confirmed to be inhibited”.
For the compound `[Cl-].[K+]` [KCl, potassium chloride], the proliferation result in experiment [2] (0.1% added after 20 hours to SynAA culture medium with NaH2PO4 instead of KH2PO4) is given as “proliferation began”.
In the case of `O=P([O-])(O)O.[K+]` [KH2PO4, potassium dihydrogen phosphate], the “proliferation when the component is not added” value in experiment [2] was “extremely low proliferation”.
Consider `Cl.NCCCC[C@H](N)C(=O)O` [Lysine, L-Lysine hydrochloride], for which the “proliferation when added singly” value in experiment [1] is “almost no proliferation”.
Consider `O.O.O.O.O.O.O.O=S(=O)([O-])[O-].[Mg+2]` [MgSO4, magnesium sulfate-heptahydrate], for which the “OD600 for 1/100 solutions after 42 hours” value is on record as 0.02 in experiment [2] (concentration of the substance adjusted to 0%); 0.04 in experiment [2] (concentration of the substance adjusted to 0.0001%); 0.09 in experiment [2] (concentration of the substance adjusted to 0.001%); 0.12 in experiment [2] (concentration of the substance adjusted to 0.01%); 0.13 in experiment [2] (concentration of the substance adjusted to 0.1%); 0.13 in experiment [2] (concentration of the substance adjusted to 1%). The “proliferation when the component is not added” value in experiment [2] (setting [6]) is “extremely low proliferation”.
With `O=P([O-])(O)O.[Na+]` [NaH2PO4], in experiment [2] (0.1% added to SynAA culture medium instead of KH2PO4, after 20 hours), the proliferation entry is reported as “proliferation had not occurred”.
On to `O=C(O)[C@@H]1CCCN1` [Proline, L-Proline], for which, in experiment [1], the “proliferation when added singly” value is listed as “favorable proliferation”.
In the case of `C[C@@H](O)[C@H](N)C(=O)O` [Threonine, L-Threonine], in experiment [1], the “proliferation when added singly” value was “almost no proliferation”. In experiment [4] (AID culture medium), the “content at which proliferation particularly increased” value is reported as “around 0.5 mg/mL” and the “effect on proliferation when added at high concentrations” value was “proliferation was confirmed to be inhibited”. For the same compound, the “preferred concentration / content” value in experiment [4] (AID or aY-AID culture medium) was “around 0.5 g/L”.
In the case of `Nc1ncnc2nc[nH]c12` [adenine], in experiment [5], the “concentration at which proliferation was slightly inhibited” value is reported as ≥ 0.1%. The preferred concentration result in experiment [5] is “around 0.01%”. The “OD600 for 1/20 solutions after 42 hours” value in experiment [5] (adenine 0%) is on record as 4; in experiment [5] (adenine 0.005%), 15; in experiment [5] (adenine 0.01%), 18; in experiment [5] (adenine 0.05%), 18; in experiment [5] (adenine 0.1%) it was 13; in experiment [5] (adenine 0.5%), 16.
Turning to `OB(O)O` [boric acid], the “essentiality for increasing proliferation” value in experiment [2] is reported as “not be essential components”.
Same read-out and setting: with `Nc1nc2ncc(CNc3ccc(C(=O)N[C@@H](CCC(=O)O)C(=O)O)cc3)nc2c(=O)[nH]1` [folic acid] the entry was “not be essential components”.
Turning to `O[C@H]1[C@H](O)[C@@H](O)[C@H](O)[C@@H](O)[C@H]1O` [inositol, myo-inositol], in experiment [3] (AKD′ culture medium, myo-inositol 0 to 200 μg/mL), the “proliferation versus inositol content” value was “Proliferation increased in proportion to an increase in inositol content”. The “proliferation compared with AKD′” value in experiment [3] (inositol added at 10%) is “below that of AKD′”.
Turning to `CC(C)(CO)[C@@H](O)C(=O)NCCC(=O)O` [pantothenic acid], in experiment [3] (AKD′ culture medium), the “concentration at which proliferation was inhibited” value is 40 µg/mL and the preferred concentration entry was “around 4000 μg/L”. Also, in experiment [3] (AKD′ culture medium without the substance), the “proliferation at a content of 0” value is listed as “no proliferation whatsoever”. The “essentiality for increasing proliferation” value in experiment [2] is recorded as “essential components”.
Regarding `Cc1cc2nc3c(=O)[nH]c(=O)nc-3n(C[C@H](O)[C@H](O)[C@H](O)CO)c2cc1C` [riboflavin], the “essentiality for increasing proliferation” value in experiment [2] is “not be essential components”.
